According to patent publication US20090105260A1, “Molecules to Enhance Percutaneous Delivery and Methods for Discovery Therefor” (priority 2005, published 2009):

Tested on: porcine skin (ER); EpiDerm™ normal human derived epidermal keratinocytes (IP)
Assay: ER/IP: skin conductivity enhancement ratio (INSIGHT apparatus) divided by irritation potential (EpiDerm MTT viability)
Design: species or system Yorkshire pigs; human
Conditions: EpiDerm and INSIGHT apparatus, procedures of Examples 1 and 2; FIG. 32 left-hand panel
Protocol: Formulations containing 1.5% (wt/vol) of each CPE were prepared in a 1:1 EtOH:PBS (ethanol:phosphate buffered saline) solvent.
Irritation potential of formulations was estimated using EpiDerm™ (MatTek Corporation, Ashland, Mass. www.mattek.com), a cell culture of normal human derived epidermal keratinocytes. EpiDerm™ cultures were stored and handled according to the standard protocol MTT-ET-50 supplied by MatTek Corporation. To study the effect of the test formulations on cell viability, cell cultures were exposed to 10 μl of the test formulation consisting of 1.5% (wt/vol) of each CPE in a 1:1 EtOH:PBS solvent for 4 hours. Each test formulation was analyzed in duplicate. The cell cultures were then handled as per the MTT-ET-50 protocol. The optical absorbance data from the extracted samples was then used to calculate the percentage cell viability as recommended in the protocol. Based on the cell viability, the irritation potential, IP, was defined as follows:
1% (wt/vol) Triton X-100 dissolved in water was used as the positive control and 1:1 PBS:EtOH was used as negative control. […]
Enhancement ratios were measured using an apparatus (the INSIGHT apparatus) which consisted of a polycarbonate plate that served as the receptor plate and a Teflon® plate that served as the donor plate. […]
Skin impedance in each well was recorded using two electrodes. […]

**Q.** For C=C(C)C(=O)OCCCCCCCCCCCCCCCCCC [SM, stearyl methacrylate], which “FP/IPDescriptor (ER/IP determined experimentally) relative to oleic acid” value is on record?
**A.** The value was “about 3 times”.
